Legend:
[1] = DPPH antioxidant potential; details: for DPPH (μmol TE/g): TE: Trolox Equivalent
albumin = albumin (Bos taurus, UniProt P02769); experiment: Anti-AGE activity measured on albumin (pentosidine-type AGEs formed); assay type: biochemical; details: quantity of pentosidine-type AGEs formed
[2] = ORAC antioxidant potential; details: for ORAC (μmol TE/g): TE: Trolox Equivalent
calf skin collagen = target: T1, calf skin collagen (Bos taurus, UniProt P02453+P02465); experiment: Anti-AGE activity on calf skin collagen in solution in the presence of ribose (pentosidine-type AGE fluorescence); assay type: biochemical; details: for IC50: read-out: Anti-AGE activity measured on collagen (IC50 in mg/mL) (converted)
T1 construct: from tissue; host or cells: calf skin
Method: Calf skin collagen (0.1 mg/mL) and ribose (0.5 M) are incubated in phosphate buffer 50 mM pH 7.4 at 37° C. in a 96-well Greiner bio-one plate with a black bottom (100 μL). The same experiment is performed in the presence of an AGE formation inhibitor, such as aminoguanidine (1 mg/mL, DMSO 10%). The following control solutions are also prepared: collagen (0.1 mg/mL) with or without an AGE formation inhibitor (1 mg/mL, DMSO 10%) is incubated in phosphate buffer 50 mM pH 7.4 at 37° C.

[3] = ribose, quantity of pentosidine-type AGEs formed, NA: Inactive

T1 sequence (P02453 162-1217 limits assumed): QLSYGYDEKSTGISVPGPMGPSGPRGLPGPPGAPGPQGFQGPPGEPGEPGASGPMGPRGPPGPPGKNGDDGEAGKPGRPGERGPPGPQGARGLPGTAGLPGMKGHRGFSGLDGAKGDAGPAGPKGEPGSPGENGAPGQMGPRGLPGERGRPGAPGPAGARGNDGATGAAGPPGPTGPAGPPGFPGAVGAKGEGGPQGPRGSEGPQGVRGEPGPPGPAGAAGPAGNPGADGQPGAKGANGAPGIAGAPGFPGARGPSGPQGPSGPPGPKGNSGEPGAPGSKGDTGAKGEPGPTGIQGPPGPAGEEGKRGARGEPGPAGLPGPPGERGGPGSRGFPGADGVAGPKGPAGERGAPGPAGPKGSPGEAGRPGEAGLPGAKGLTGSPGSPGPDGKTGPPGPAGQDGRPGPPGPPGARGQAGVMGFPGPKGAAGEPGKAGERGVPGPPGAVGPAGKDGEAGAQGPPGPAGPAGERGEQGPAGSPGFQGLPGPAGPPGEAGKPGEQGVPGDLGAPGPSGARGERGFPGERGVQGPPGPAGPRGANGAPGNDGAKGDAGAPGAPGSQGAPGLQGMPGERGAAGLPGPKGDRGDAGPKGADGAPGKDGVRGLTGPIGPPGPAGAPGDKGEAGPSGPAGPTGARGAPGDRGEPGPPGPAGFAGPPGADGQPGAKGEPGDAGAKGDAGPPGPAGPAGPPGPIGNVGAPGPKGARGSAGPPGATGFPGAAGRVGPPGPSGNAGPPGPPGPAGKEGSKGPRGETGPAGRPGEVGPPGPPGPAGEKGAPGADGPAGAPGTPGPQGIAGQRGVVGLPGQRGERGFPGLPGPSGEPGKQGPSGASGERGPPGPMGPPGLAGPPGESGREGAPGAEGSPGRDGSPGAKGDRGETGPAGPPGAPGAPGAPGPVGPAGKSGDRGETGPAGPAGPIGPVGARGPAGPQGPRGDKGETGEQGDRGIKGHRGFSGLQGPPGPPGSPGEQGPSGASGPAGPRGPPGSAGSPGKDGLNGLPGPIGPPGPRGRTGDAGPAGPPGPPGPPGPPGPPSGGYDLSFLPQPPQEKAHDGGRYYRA
T1 sequence (P02465 80-1117 limits assumed): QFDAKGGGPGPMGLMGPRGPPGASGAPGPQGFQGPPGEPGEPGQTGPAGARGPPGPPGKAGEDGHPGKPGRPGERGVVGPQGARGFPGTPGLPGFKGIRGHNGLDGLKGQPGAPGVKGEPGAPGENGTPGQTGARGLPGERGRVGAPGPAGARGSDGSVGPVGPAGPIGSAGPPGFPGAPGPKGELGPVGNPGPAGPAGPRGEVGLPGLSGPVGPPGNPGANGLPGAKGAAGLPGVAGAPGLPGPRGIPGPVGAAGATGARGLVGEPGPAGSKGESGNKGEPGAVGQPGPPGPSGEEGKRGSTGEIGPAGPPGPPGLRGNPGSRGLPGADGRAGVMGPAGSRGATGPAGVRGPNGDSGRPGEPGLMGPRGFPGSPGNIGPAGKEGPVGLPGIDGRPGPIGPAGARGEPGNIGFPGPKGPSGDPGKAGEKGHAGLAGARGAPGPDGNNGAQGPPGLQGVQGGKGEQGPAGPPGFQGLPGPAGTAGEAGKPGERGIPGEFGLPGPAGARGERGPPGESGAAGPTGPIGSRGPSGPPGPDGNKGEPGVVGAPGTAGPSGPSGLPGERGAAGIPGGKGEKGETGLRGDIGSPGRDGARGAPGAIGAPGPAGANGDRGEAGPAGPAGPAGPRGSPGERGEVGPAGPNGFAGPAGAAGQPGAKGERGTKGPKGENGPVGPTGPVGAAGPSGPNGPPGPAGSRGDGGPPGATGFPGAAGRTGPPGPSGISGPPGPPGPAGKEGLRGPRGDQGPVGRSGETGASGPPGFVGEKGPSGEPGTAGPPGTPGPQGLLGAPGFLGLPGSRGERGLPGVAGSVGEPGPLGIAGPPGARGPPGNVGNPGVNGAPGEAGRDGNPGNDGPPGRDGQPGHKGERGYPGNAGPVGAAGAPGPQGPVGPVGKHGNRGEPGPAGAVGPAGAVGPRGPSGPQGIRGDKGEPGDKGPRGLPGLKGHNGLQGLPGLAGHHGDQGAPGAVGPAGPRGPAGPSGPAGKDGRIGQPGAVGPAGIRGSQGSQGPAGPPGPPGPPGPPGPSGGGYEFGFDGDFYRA
Sequence of albumin (P02769 25-607): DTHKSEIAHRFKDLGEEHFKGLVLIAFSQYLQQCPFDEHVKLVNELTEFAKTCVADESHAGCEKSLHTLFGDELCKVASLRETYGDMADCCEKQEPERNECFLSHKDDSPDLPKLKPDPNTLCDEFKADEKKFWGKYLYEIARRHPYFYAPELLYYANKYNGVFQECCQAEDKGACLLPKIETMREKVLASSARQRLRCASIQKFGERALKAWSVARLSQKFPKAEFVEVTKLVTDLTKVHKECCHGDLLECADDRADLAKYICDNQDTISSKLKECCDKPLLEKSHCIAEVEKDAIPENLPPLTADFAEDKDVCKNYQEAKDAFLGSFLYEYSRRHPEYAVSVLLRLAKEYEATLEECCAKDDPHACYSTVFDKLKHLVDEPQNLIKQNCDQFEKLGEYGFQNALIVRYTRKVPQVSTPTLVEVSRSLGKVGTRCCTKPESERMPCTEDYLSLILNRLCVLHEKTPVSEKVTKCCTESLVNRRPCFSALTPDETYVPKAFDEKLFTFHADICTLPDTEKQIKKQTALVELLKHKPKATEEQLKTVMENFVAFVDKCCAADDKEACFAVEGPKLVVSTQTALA

Compound | IC50 (calf skin collagen; [3]) | DPPH (μmol TE/g) [1] | ORAC (μmol TE/g) [2] | also measured
N=C(N)NN [Aminoguanidine] | 13500 µM | 0 μmol TE/g | 0 μmol TE/g | antioxidant activity, DPPH test (in words) [1]: does not have an antioxidant activity; IC50 (albumin; read-out: Anti-AGE activity measured on albumin (IC50 in mg/mL) (converted)): 2020 µM; antioxidant activity, ORAC test (in words) [2]: does not have an antioxidant activity
Oc1cc(O)c2c(c1)O[C@H](c1ccc(O)c(O)c1)[C@H](O)[C@H]2c1c(O)cc(O)c2c1O[C@H](c1ccc(O)c(O)c1)[C@H](O)C2 [Procyanidin B2] | – | 3945 μmol TE/g | 23720 μmol TE/g | Anti-AGE activity measured on albumin (IC50 in mg/mL) (albumin): 0.1 mg/mL
O=c1c(O)c(-c2ccc(O)c(O)c2)oc2cc(O)cc(O)c12 [Quercetin] | 1160 µM | 6722 μmol TE/g | – | –
C/C(=C\CC/C(C)=C/CC[C@]1(C)CCc2cc(O)cc(C)c2O1)CC/C=C(\C)C(=O)O [garcinoic acid] | – | – | – | anti-glycation activity on calf skin collagen (in words) (calf skin collagen): has a real anti-glycation activity, but nevertheless inferior to that of kolaviron
GB2 | – | – | – | Anti-AGE activity measured on collagen (IC50 in mg/mL) (calf skin collagen; [3]): 0.03 mg/mL
